Reference: patent US20030104965A1, “Laundry sanitizer containing partially halogenated hydantoins” (Lonza Inc., priority 2001, published 2003)

Legend:
[1] = system: K. pneumoniae; assay: Petrocci & Clarke antimicrobial laundry additive test, cotton fabric, Tide powder plus sanitizer; type: cell-based; details: 30 ppm sanitizer (expressed as Cl2), mixture with Tide powder; for Percent Reduction of K. pneumonia on Fabric: cotton fabric
Procedure: Bioefficacy studies were performed using cotton fabric samples to compare monochloro dimethyl hydantoin (MCDMH) to trichloroisocyanuric acid (TCCA) and sodium dichloroisocyanurate (DCCA), two chlorine bleaches. Mixtures of Tide® powder, available from Procter and Gamble of Cincinnati, Ohio, and the sanitizers specified in Table 1 were prepared and thereafter dissolved in water. The sanitizers were completely dissolved in the water before testing. The mixtures were tested according to the known Petrocci & Clarke method (A. Petrocci and P. Clarke, Proposed Test Method for Antimicrobial Laundry Additives, Journal of the Association of Official Analytical Chemists, 52(4), 836-842 (1969)) against K. pneumoniae. The percent reduction of K. pneumonia on the fabric and on the wash water was determined.

[2] = system: Klebsiella pneumoniae ATCC 4352; assay: Simulated in-use laundry sanitation test (Petrocci and Clarke); type: cell-based; details: pH 7.0, Example 6
Procedure: A simulated “in-use” laundry sanitation test, as described in Petrocci and Clarke, supra, was conducted to evaluate the activity of the samples listed in Table 3 below.
The test was performed as follows. Fabric swatches were inoculated and dried with ˜20,000,000 cfu test organism. (Staphylococcus aureus ATCC 6538, Klebsiella pneumoniae ATCC 4352). The swatches were exposed to a sample dilution for 10 minutes followed by neutralization and enumeration of survivors. The percent reduction of bacteria was calculated for the fabric swatches and wash water.
The sample dilutions were prepared as follows. Tide® powder and MCDMH were dissolved separately in water and mixed together. Then the mixture was adjusted to 150 ppm hard water. The Tide® powder mixture contained about 1.8 g of Tide® powder per liter of mixture.
The procedure in Example 5 was repeated with Klebsiella pneumonia ATCC 4352 only. The Tide® liquid sample was prepared by the same procedure as the Tide® powder sample described in Example 5. The Tide® liquid mixture contained about 1.8 g of Tide® liquid per liter of mixture.

Row | Compound | Percent Reduction of K. pneumonia in Wash Water [1] [%] | Percent Reduction of K. pneumonia on Fabric [1] [%] | % Reduction in 10 Minutes - Kiebsiella Fabric ([2]; 5 ppm (expressed as Cl2)) [%] | % Reduction in 10 Minutes - Kiebsiella Water ([2]; 5 ppm (expressed as Cl2)) [%] | % Reduction in 10 Minutes - Kiebsiella Fabric ([2]; 10 ppm (expressed as Cl2)) [%] | % Reduction in 10 Minutes - Kiebsiella Water ([2]; 10 ppm (expressed as Cl2)) [%] | % Reduction in 10 Minutes - Kiebsiella Fabric ([2]; 20 ppm (expressed as Cl2)) [%] | % Reduction in 10 Minutes - Kiebsiella Water ([2]; 20 ppm (expressed as Cl2)) [%]
1 | O=c1nc([O-])n(Cl)c(=O)n1Cl.[Na+] [DCCA, sodium dichloroisocyanurate] | 87.50 | 96.36 |  |  |  |  |  | 
2 | O=c1n(Cl)c(=O)n(Cl)c(=O)n1Cl [TCCA, trichloroisocyanuric acid] | 96.38 | 97.09 |  |  |  |  |  | 
3 | monochloro-5,5-dimethyl hydantoin [MCDMH] | 99.76 | 99.60 | 99.99 | 100 | 100 | 100 | 100 | 100
